For 20 molecules, T/C results are on record in PubChem BioAssay AID248 (DTP/NCI, 2004).

Each structure is given as a SMILES string. Several values for one entry are separate records, joined by “and”; a condition that tells them apart may be missing. Identical values can stand only once. Toxic doses and inconclusive results are not listed.

For the assay, the system named is L1210 leukemia ip in BDF1 mice, survival T/C. The experiment in a line: NCI In Vivo Anticancer Drug Screen. Data for tumor model L1210 Leukemia (intraperitoneal) in B6D2F1 (BDF1) mice. As to conditions: endpoint: mean survival time, higher = longer survival. In short, it runs like this:
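Transplantable tumor model; survival measured in treated vs vehicle control mice. Value = treated/control.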

[1] abbreviates: dose: 25.0 mg/kg/injection, schedule: Q01DX009 (ip), vehicle: Klucel (hydroxypropylcellulose) (HPC).
[2] abbreviates: dose: 100.0 mg/kg/injection, schedule: Q04DX002 (ip), vehicle: Klucel (hydroxypropylcellulose) (HPC).
Setting [3] is: dose: 100.0 mg/kg/injection, schedule: Q01DX001 (sc), vehicle: steriod suspending solution.
The mark [4] stands for this setting: dose: 200.0 mg/kg/injection, schedule: Q01DX001 (sc), vehicle: steriod suspending solution.
The mark [5] stands for this setting: dose: 400.0 mg/kg/injection, schedule: Q01DX001 (sc), vehicle: steriod suspending solution.
The mark [6] stands for this setting: dose: 100.0 mg/kg/injection, schedule: Q04DX003 (ip), vehicle: Klucel (hydroxypropylcellulose) (HPC).
Where [7] appears, read: dose: 200.0 mg/kg/injection, schedule: Q04DX003 (ip), vehicle: Klucel (hydroxypropylcellulose) (HPC).
Where [8] appears, read: dose: 400.0 mg/kg/injection, schedule: Q04DX003 (ip), vehicle: Klucel (hydroxypropylcellulose) (HPC).
The mark [9] stands for this setting: dose: 100.0 mg/kg/injection, schedule: Q01DX001 (ip), vehicle: carboxymethylcellulose (CMC).
Setting [10] is: dose: 200.0 mg/kg/injection, schedule: Q01DX009 (ip), vehicle: Klucel (hydroxypropylcellulose) (HPC).
Where [11] appears, read: dose: 400.0 mg/kg/injection, schedule: Q01DX009 (ip), vehicle: Klucel (hydroxypropylcellulose) (HPC).
The mark [12] stands for this setting: dose: 200.0 mg/kg/injection, schedule: Q04DX002 (ip), vehicle: Klucel (hydroxypropylcellulose) (HPC).
Setting [13] is: dose: 400.0 mg/kg/injection, schedule: Q04DX002 (ip), vehicle: Klucel (hydroxypropylcellulose) (HPC).

Turning to `CCCCN=Cc1ccccc1O.CCCCN=Cc1ccccc1O.[Cu]`, the T/C is, setting by setting: (dose: 6.25 mg/kg/injection, schedule: Q01DX009 (ip), vehicle: Klucel (hydroxypropylcellulose) (HPC)) 91 % of control; (dose: 12.5 mg/kg/injection, schedule: Q04DX002 (ip), vehicle: Klucel (hydroxypropylcellulose) (HPC)) 107 % of control; under setting [1], 97 % of control; (dose: 25.0 mg/kg/injection, schedule: Q04DX002 (ip), vehicle: Klucel (hydroxypropylcellulose) (HPC)) 89 % of control; under setting [2], 104 % of control.
For the molecule `CC(=O)O[C@H]1CC[C@]2(C)[C@H]3CC[C@]4(C)[C@@H](OC(C)=O)CC[C@H]4[C@@H]3[C@@H](C)[C@]2(O)C1`, the T/C was 102 % of control (dose: 50.0 mg/kg/injection, schedule: Q01DX001 (sc), vehicle: steriod suspending solution); 100 % of control under setting [3]; 102 % of control under setting [4]; 105 % of control under setting [5].
`c1scc2c1COCc1cscc1-2`: the T/C by setting is: (dose: 100.0 mg/kg/injection, schedule: Q01DX001 (ip), vehicle: saline with Tween-80) 94 % of control; (dose: 200.0 mg/kg/injection, schedule: Q01DX001 (ip), vehicle: saline with Tween-80) 94 % of control; (dose: 400.0 mg/kg/injection, schedule: Q01DX001 (ip), vehicle: saline with Tween-80) 88 % of control.
For the molecule `Nc1nc(N)c2nc(CNc3ccc(C(=O)NC(CCCCC(=O)O)C(=O)O)cc3)cnc2n1` (stereo unspecified), under “dose: 20.0 mg/kg/injection, schedule: Q01DX009 (ip), vehicle: sodium bicarbonate”, the T/C is 157 % of control.
Take `c1cc2c(cc1C1=NNC(c3ccc4c(c3)OCO4)=NN1)OCO2`: the T/C runs as follows: (dose: 100.0 mg/kg/injection, schedule: Q04DX003 (ip), vehicle: saline with Tween-80) 104 % of control; (dose: 200.0 mg/kg/injection, schedule: Q04DX003 (ip), vehicle: saline with Tween-80) 98 % of control; (dose: 400.0 mg/kg/injection, schedule: Q04DX003 (ip), vehicle: saline with Tween-80) 96 % of control.
`N#Cc1nc2nc(C(F)(F)F)[nH]c2nc1C#N`: the T/C is 101 % of control (dose: 12.5 mg/kg/injection, schedule: Q01DX009 (ip), vehicle: saline with Tween-80); 120 % of control (dose: 12.5 mg/kg/injection, schedule: Q04DX003 (ip), vehicle: saline with Tween-80); 103 % of control (dose: 25.0 mg/kg/injection, schedule: Q01DX009 (ip), vehicle: saline with Tween-80); 103 % of control (dose: 25.0 mg/kg/injection, schedule: Q04DX003 (ip), vehicle: saline with Tween-80); 93 % of control (dose: 50.0 mg/kg/injection, schedule: Q01DX009 (ip), vehicle: saline with Tween-80).
As to `c1ccc2cc3c(cc2c1)oc1cc2ccccc2cc13`, the T/C under setting [6] was 120 % of control, the T/C under setting [7] is 101 % of control and the T/C under setting [8] was 107 % of control.
Consider `c1ccc2c(c1)nnn1c3ccccc3nc21`, for which the T/C was 102 % of control (dose: 25.0 mg/kg/injection, schedule: Q04DX003 (ip), vehicle: Klucel (hydroxypropylcellulose) (HPC)); 94 % of control (dose: 50.0 mg/kg/injection, schedule: Q04DX003 (ip), vehicle: Klucel (hydroxypropylcellulose) (HPC)); 97 % of control (dose: 100.0 mg/kg/injection, schedule: Q01DX001 (ip), vehicle: other); 101 % of control (dose: 100.0 mg/kg/injection, schedule: Q01DX009 (ip), vehicle: other); 104 % of control under setting [6]; 108 % of control and 92 % of control (dose: 200.0 mg/kg/injection, schedule: Q01DX001 (ip), vehicle: other). The T/C is 86 % of control (dose: 200.0 mg/kg/injection, schedule: Q01DX009 (ip), vehicle: other); 95 % of control and 92 % of control (dose: 400.0 mg/kg/injection, schedule: Q01DX001 (ip), vehicle: other); 90 % of control (dose: 400.0 mg/kg/injection, schedule: Q01DX009 (ip), vehicle: other).
With `CCCC[n+]1cccc2ccccc21`, the T/C (dose: 25.0 mg/kg/injection, schedule: Q01DX001 (ip), vehicle: Klucel (hydroxypropylcellulose) (HPC)) was 105 % of control; the T/C (dose: 50.0 mg/kg/injection, schedule: Q01DX001 (ip), vehicle: Klucel (hydroxypropylcellulose) (HPC)) was 100 % of control; the T/C under setting [9] was 96 % of control.
Turning to `Cc1ccc(C(=O)C(c2ccccc2)C(Cl)c2ccccc2)cc1` (stereo unspecified), the T/C (dose: 100.0 mg/kg/injection, schedule: Q01DX009 (ip), vehicle: Klucel (hydroxypropylcellulose) (HPC)) is 98 % of control; the T/C under setting [6] is 92 % of control; the T/C under setting [10] was 104 % of control; the T/C under setting [7] is 98 % of control; the T/C under setting [11] was 92 % of control; the T/C under setting [8] is 102 % of control.
As to `C[C@]12CCC(=O)C=C1CC[C@@H]1[C@@H]2[C@@H](O)C[C@@]2(C)[C@H]1CC[C@]2(O)C(=O)COC(=O)c1ccc([N+](=O)[O-])cc1Cl`, the T/C is, setting by setting: under setting [3], 101 % of control; under setting [4], 101 % of control; under setting [5], 97 % of control.
For the molecule `CCC(C)[n+]1cc([O-])on1` (stereo unspecified), the T/C was 98 % of control (dose: 12.5 mg/kg/injection, schedule: Q01DX009 (ip), vehicle: Klucel (hydroxypropylcellulose) (HPC)); 98 % of control under setting [1]; 95 % of control (dose: 50.0 mg/kg/injection, schedule: Q01DX009 (ip), vehicle: Klucel (hydroxypropylcellulose) (HPC)).
For the molecule `CCN=C(NCC)c1ccc(NC(=O)c2ccc(C(=O)Nc3ccc(C(=NCC)NCC)cc3)c(Cl)c2)cc1`, the T/C runs as follows: (dose: 1.87 mg/kg/injection, schedule: Q01DX Z (ip), vehicle: carboxymethylcellulose (CMC)) 101 % of control; (dose: 3.75 mg/kg/injection, schedule: Q01DX Z (ip), vehicle: carboxymethylcellulose (CMC)) 97 % of control; (dose: 7.5 mg/kg/injection, schedule: Q01DX Z (ip), vehicle: carboxymethylcellulose (CMC)) 103 % of control.
Regarding `Nc1ccc(S(=O)(=O)NCc2nccs2)cc1`, the T/C by setting is: (dose: 5.0 mg/kg/injection, schedule: Q01DX001 (ip), vehicle: saline) 102 % of control; (dose: 10.0 mg/kg/injection, schedule: Q01DX001 (ip), vehicle: saline) 100 % of control; (dose: 20.0 mg/kg/injection, schedule: Q01DX001 (ip), vehicle: saline) 100 % of control; (dose: 40.0 mg/kg/injection, schedule: Q01DX001 (ip), vehicle: saline) 102 % of control; (dose: 80.0 mg/kg/injection, schedule: Q01DX001 (ip), vehicle: saline) 100 % of control.
Regarding `COc1ccccc1NC(=O)Nc1c(C)cc(C)cc1C`, the T/C by setting is: under setting [6], 95 % of control; under setting [10], 90 % of control; under setting [7], 88 % of control; under setting [11], 95 % of control; under setting [8], 91 % of control.
As to `CC1C2CCC(C2)C1(C)C` (stereo unspecified), the T/C was 93 % of control (dose: 100.0 mg/kg/injection, schedule: Q01DX001 (ip), vehicle: Klucel (hydroxypropylcellulose) (HPC)); 100 % of control (dose: 200.0 mg/kg/injection, schedule: Q01DX001 (ip), vehicle: Klucel (hydroxypropylcellulose) (HPC)); 102 % of control (dose: 400.0 mg/kg/injection, schedule: Q01DX001 (ip), vehicle: Klucel (hydroxypropylcellulose) (HPC)).
Take `CCN(C(=O)c1cccc(C(=O)N(CC)c2cccc(C)c2)c1)c1cccc(C)c1`: the T/C is, setting by setting: under setting [2], 94 % of control; under setting [12], 91 % of control; under setting [13], 91 % of control.
Turning to `COc1cc(Cl)ccc1NC(=O)Oc1ccc(C=O)cc1OC`, the T/C was 101 % of control under setting [2], 90 % of control under setting [12] and 93 % of control under setting [13].
Take `CCCCCCCCCCCC(=O)N(C)C`: the T/C reads like this: under setting [6], 109 % of control; under setting [7], 111 % of control; under setting [8], 109 % of control.
As to `COC(=O)C1(CCOC(C)=O)CCCCC12OCCO2` (stereo unspecified), the T/C was 94 % of control under setting [9]; 100 % of control (dose: 200.0 mg/kg/injection, schedule: Q01DX001 (ip), vehicle: carboxymethylcellulose (CMC)); 91 % of control (dose: 400.0 mg/kg/injection, schedule: Q01DX001 (ip), vehicle: carboxymethylcellulose (CMC)).
